Values joined by “and” are separate entries in the source; they are usually repeats but may differ in a detail not shown here. Identical values can stand only once. “Also recorded” adds a separate entry of the source.
Columns and labels:
C. elegans [1] = test: Worm lifespan analysis; format: in vivo; settings: for variation compared to control (%): vs N2 + water
Description: Worm Lifespan Analysis Lifespan tests were performed as described in Mouchiroud et al (L. Mouchiroud et al., Pyruvate imbalance mediates metabolic reprogramming and mimics lifespan extension by dietary restriction in Caenorhabditis elegans. Aging Cell 10, 39 (2011)). Briefly, 60-100 animals were used per conditions and scored every other day. All lifespan experiments were performed at 20° C. […] Animals were exposed to compounds during the full life from eggs until death. To ensure a permanent exposure to the compound, plates were changed twice a week. All the compounds used in this study were dissolved in a water stock solution.

C57Bl/6J mice = test: NAD+ content in mouse tissues after one week of supplemented chow; format: in vivo; settings: 400 mg/kg/day in chow; for muscle NAD+ content: quadriceps
Description: Animal Experiments. […] In other animal experiments, 8 weeks-old male C57Bl/6J mice were purchased from Charles River and powder chow (D12450B) and high fat (D12492) diets were from Research Diets Inc (New Brunswick, N.J., USA). 80 ml of water per kg of powder CD were used to make food pellets. 40 ml of water per kg of powder HFD were used to make food pellets. […] Mice were housed separately, had ad libitum access to water and food and were kept under a 12 h dark-light cycle. Mice were fed with homemade pellets from 10 weeks of age. […] All animal experiments were carried out according to local national and EU ethical guidelines. To monitor body weight, mice were weighed and the food consumption was measured each week on the same day. In case of PJ34 treatment, mice received each 12 h (at 7:00 and 19:00) 10 mg/kg PJ34 by intraperitoneal injection for 5 continuous days. In all studies animals were killed (at 14:00) either after CO2 inhalation or cervical dislocation after 6 h of fasting (starting at 8:00), and tissues were collected and processed as specified below. […] Plasma insulin and was determined in heparinized plasma samples using specific ELISA kits (Mercodia). Blood samples were collected in heparinized tubes and plasma was isolated after centrifugation. Plasma parameters were measured using a Cobas c111 (Roche Diagnostics). […] The respiratory quotient was the ratio of CO2 production over O2 consumption. During actimetry, beamline crossings were summarized each 15 minutes.
NAD^+ NAM Determination. NAD^+ levels in cultured cells were determined using a commercial kit (Enzychrom™, BioAssays Systems, CA). […] 70 L of ice-cold 7% perchloric acid was then added and the sample was vortexed and sonicated three times, then centrifuged. Clear supernatant was removed and neutralized by additions of 3 M NaOH and 1 M phosphate buffer (pH=9), then centrifuged. Clear supernatant was injected onto HPLC C-18 column with 20 mM ammonium acetate eluent to separate NAD^+ and NAM from other cellular components, NAD^+ and NAM peaks (260 nm absorbance) were collected. Collections were lyophilized to dryness and subjected to MALDI-TOF analysis. […] Corrections were applied for isotopic abundance.

C. elegans [2] = test: Worm respiration assay (Seahorse XF24); format: in vivo; settings: day 3 adult worms
Description: (§1) Worm Respiration Assays Oxygen consumption was measured using the Seahorse XF24 equipment (Seahorse Bioscience Inc., North Billerica, Mass.) as described in Yamamoto et al. Typically, 200 animals per conditions were recovered from NGM plates with M9 medium, washed three times in 2 mLM9 to eliminate residual bacteria, and resuspended in 500 μL M9 medium. Worms were transferred in 24-well standard Seahorse plates (#100777-004) (50 worms per well) and oxygen consumption was measured 6 times. Respiration rates were normalized to the number of worms in each individual well. NAD measurement by HPLC For NAD+ quantification, approximately 1000 worms were collected in M9 buffer, washed five times to remove residual bacteria and flash-frozen in liquid nitrogen and stored at −80° C. until analysis. Extraction was started by adding 250 μl of 1.6M perchloric acid on frozen samples, followed by extensive homogenization in a Qiagen tissuelyser, and centrifugation at 20.000 g for 15 min. The supernatant was recovered and neutralized with a 3M potassium carbonate solution. After centrifugation, 100 μl of supernatant was filtered and used for NAD measurement using an HPLC system (Agilent) with a Supelco LC-18-T column (Sigma), as described in Yoshino et al. (Yoshino, K. F. Mills, M. J. Yoon, S. Imai, Nicotinamide Mononucleotide, a Key NAD(+) Intermediate, Treats the Pathophysiology of Diet- and Age-Induced Diabetes in Mice. Cell Metab 14, 528 (2011)).

C. elegans [3] = test: Quantitative RT-PCR in worms; format: in vivo
Description: mRNA and mtDNA Analysis. Total RNA was prepared using TRIzol (Invitrogen) according to the manufacturer's instructions. RNA was treated with DNase, and 2 μg of RNA was used for reverse transcription (RT). cDNA was purified on QIAquick PCR cleanup columns (Qiagen, Valencia, Calif., USA). 50× diluted cDNA was used for RT-quantitative PCR (RT-VCR) VCR) reactions (Bai et al., 2007). The RT-qPCR reactions were performed using the Light-Cycler system (Roche Applied Science) and a qPCR Supermix (Qiagen) with the primers for mice summarized in Table 1 and 4, and with the primers for worms summarized on Table 7. mtDNA quantification was performed as described (Lagouge et al., 2006) with the primers indicated in Table 2 and 5.

C. elegans [4] = test: Confocal microscopy of mitochondria in body wall muscle (pmyo-3::mito::GFP reporter); settings: in vivo
Description: Confocal Microscopy and Image Processing Worms were immobilized with 6 mM solution of tetramisole hydrochloride (Sigma, Buchs, Switzerland) in M9 and mounted on 6% agarose pads on glass slides. Images of worms were acquired using Zeiss LSM 700 Upright confocal microscope (Carl Zeiss AG, Oberkochen, Germany) under non-saturating exposure conditions. All the snapshots were taken from the same part of C. elegans: muscles from the upper part of the worm, excluding the regions of oesophagus and vulva. For each condition multiple worms were observed and imaged. Image processing was performed with the Fiji software. One of the critical issues during the imaging process was the position of the worm, as it influences the level of background. For the uniformity of the represented images, contrast and brightness were adjusted in order, to eliminate the undesirable background signal. Neither of these manipulations was affecting the mitochondrial shape. Tracing of the mitochondrial network contour was done by the use of Gaussian blur filter followed by the application of Laplacian operator.

C. elegans [5] = test: NAD measurement by HPLC in worms; format: in vivo; settings: day 4 of adulthood
Description: as §1, with “After centrifugation, 100 μl of supernatant was filtered and used for NAD measurement using an HPLC system (Agilent) with a Supelco LC-18-T column (Sigma), as described in Yoshino et al. (Yoshino, K. F. Mills, M. J. Yoon, S. Imai, Nicotinamide Mononucleotide, a Key NAD(+) Intermediate, Treats the Pathophysiology of Diet- and Age-Induced Diabetes in Mice. Cell Metab 14, 528 (2011)).” left out

GPR109A = target: T1, GPR109A (Homo sapiens, UniProt Q8TDS4); format: cell-based; settings: GPR109A-expressing Chem-4 cells
T1 construct: host or cells: Chem-4 cells (Ready-to-Assay GPR109A Nicotinic Acid Receptor Cells)
T1 sequence (Q8TDS4 whole entry): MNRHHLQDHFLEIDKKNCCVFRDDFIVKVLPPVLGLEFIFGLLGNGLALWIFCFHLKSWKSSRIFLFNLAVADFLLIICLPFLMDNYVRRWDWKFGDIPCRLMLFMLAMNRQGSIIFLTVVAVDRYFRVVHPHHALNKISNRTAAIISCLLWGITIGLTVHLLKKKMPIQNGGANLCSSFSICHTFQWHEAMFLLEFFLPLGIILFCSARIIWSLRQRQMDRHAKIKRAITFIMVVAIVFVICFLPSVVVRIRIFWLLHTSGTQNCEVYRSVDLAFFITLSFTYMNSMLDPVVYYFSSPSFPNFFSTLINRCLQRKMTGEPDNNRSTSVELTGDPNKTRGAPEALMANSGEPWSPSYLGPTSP
Description: GPR109A—Calcium Mobilization Assay. Ready-to-Assai™ GRP109A Nicotinic Acid Receptor Cells were used to measure calcium mobilization as specified by the manufacturer (Millipore). Calcium flux was determined using excitation at 340 and 380 nm in a fluorescence spectrophotometer (Victor X4, Perkin Elmer) in a 180 seconds time course, adding the ligand at 60 seconds. Internal validation was made using 0.1% Triton X-100 for total fluorophore release and 10 mM EGTA to chelate free calcium. Similarly, GPR109A specificity was internally validated using control cells devoid of GRP109A overexpression. Liver triglyceride measurement Liver triglycerides were measured from 20 mg of liver tissue using a variation of the Folch method, as described in Bai et al. (Bai et al., PARP-2 regulates SIRT1 expression and whole-body energy expenditure. (2011). Cell Metab 13, 450-460.

C2C12 myotubes = test: Intracellular NAD+ content in C2C12 myotubes treated with PARP inhibitors; format: cell-based
Description: Cell Culture, Transfection, Adenoviral Infection and Mitochondrial Characterization. HEK293T, MEF and C2C12 cells were cultured in DMEM (4.5 g/l glucose, 10% FCS). PARP-1^+/+ and PARP-1^−/− MEFs were prepared as described in (Menissier-de Murcia et al., 1997). SIRT1 and MEFs were kindly provided by Fred Alt (Chea et al., 2005). SIRT3 MER were established according to standard techniques from conditional SERT3^−/− mice. (Picard, F., Gehin, M., Annicotte, J., Rocchi, S., Champy, M. F., O'Malley, B. W., Chambon, P., and Auwerx, J. (2002). SRC-1 and TIF2 control energy balance between white and brown adipose tissues. Cell 111, 931-941.) Deletion of the SIRT3 gene was induced via infection with adenovirus encoding for the Cre recombinase. HEK293T cells were transfected using JetPei reagent (Polyplus Transfections, Illkirch, France) according to the manufacturer's instructions. C2C12 cells were differentiated in DMEM (4.5 g/L glucose, 2% horse serum) after reaching confluency for 2 days, followed by 2 days of PJ34 treatment (10 μM). PARP-1 shRNA constructs were described in (Shah et al., 2005). Human PARP-1 and siRNAs were obtained from Dharmacon (Thermo Scientific). The adenovirus encoding for FLAG-HA-PGC-1α, control and SIRT1 shRNAs were a kind gift from Pere Puigserver and were used (MOI=100) in C2C12 myotubes as described (Canto et al., 2009). Mitochondrial charge determination was performed as described (Bai et al., 2001) and DNA strand breaks were quantified by TUNEL assays according to the manufacturer's instructions (Millipore).
NAD^+ NAM Determination. NAD^+ levels in cultured cells were determined using a commercial kit (Enzychrom™, BioAssays Systems, CA). For tissue samples NAD^+ and NAM levels were determined as described in (Sauve et al., 2005). In brief, to a weighed aliquot of frozen pulverized tissue we added as standards, ^18O-NAD^+ (typically 2.00 nmol) and ^18O-NAM (typically 2.00 nmol). 70 L of ice-cold 7% perchloric acid was then added and the sample was vortexed and sonicated three times, then centrifuged. Clear supernatant was removed and neutralized by additions of 3 M NaOH and 1 M phosphate buffer (pH=9), then centrifuged. Clear supernatant was injected onto HPLC C-18 column with 20 mM ammonium acetate eluent to separate NAD^+ and NAM from other cellular components, NAD^+ and NAM peaks (260 nm absorbance) were collected. Collections were lyophilized to dryness and subjected to MALDI-TOF analysis. For NAD^+ measurement, ratio of intensities for m/z=664 and 666 peaks, corresponding to ^16O- and ^18O-NAD^+ isotopomers, was multiplied by 2.00 nmol and then divided by tissue weight to determine NAD+ concentration in the sample. For NAM the ratio of intensities for m/z=123 and 125 peaks, corresponding to ^16O- and ^18O-NAM isotopomers, was multiplied by 2.00 nmol and then divided by tissue weight to determine NAM concentration in the sample. Corrections were applied for isotopic abundance. Other NAD metabolites were determined as previously described (Yang and Sauve, Synthesis of nictotinamide riboside and derivatives: effective agents for increasing nictinomide adenine dinucleotide concentrations in mammalian cells. J Med Chem 50, 6458-6461 (2006)).

C[C@]1(c2nc3c(C(N)=O)cccc3[nH]2)CCCN1 [ABT-888]
lifespan extension (C. elegans [1]; 100 nM (FIG. 34B)): 15%
mean lifespan ± SE (C. elegans [1]; N2, 100 nM, listed as ABT): 22.3 ± 1.01 days and 22.5 ± 1.05 days
mean lifespan ± SE (C. elegans [1]; N2, 500 nM): 22.1 ± 1.20 days
variation compared to control (%) (C. elegans [1]; N2, 500 nM): +13.9%
mean lifespan ± SE (C. elegans [1]; N2, 1000 nM): 20.0 ± 1.23 days
variation compared to control (%) (C. elegans [1]; N2, 1000 nM): +3.6%

O=C(O)c1cccnc1 [NA, nicotinic acid, reference compound]
muscle NAD+ content (C57Bl/6J mice): significantly enhanced muscle NAD^+ content

NC(=O)c1cccnc1 [NAM, nicotinamide]
increase of worm lifespan (C. elegans [1]; FIG. 39B): 18%
mean lifespan ± SE (C. elegans [1]; N2, 200 nM): 23.5 ± 1.03 days
variation compared to control (%) (C. elegans [1]; N2, 200 nM): +18.1%
mean lifespan ± SE (C. elegans [1]; N2, 500 nM): 22.6 ± 0.92 days
variation compared to control (%) (C. elegans [1]; N2, 500 nM): +13.5%
mean lifespan ± SE (C. elegans [1]; N2, 1000 nM): 21.8 ± 0.85 days
variation compared to control (%) (C. elegans [1]; N2, 1000 nM): +9.5%
lifespan in sir-2.1(ok434) mutant / sir-2.1 dependence (C. elegans [1]; sir-2.1(ok434) mutant worms): sir-2.1-dependent fashion
lifespan (C. elegans [1]; wild type N2 worms): extended lifespan
oxygen consumption (respiration) (C. elegans [2]): increased respiration; also recorded: Oxygen consumption was increased
expression of genes of mitochondrial oxidative metabolism (cts-1, cox-4) (C. elegans [3]; day 3 of adulthood): trend for increased cts-1 expression
daf-16 expression (C. elegans [3]; in vivo): without affecting daf-16 mRNA levels; also recorded: daf-16 was unchanged
sod-3 expression (C. elegans [3]; in vivo): significantly higher sod-3 expression; also recorded: expression of sod-3 was increased
mitochondrial content in body wall muscle (C. elegans [4]): increase muscle mitochondrial content; also recorded: increased mitochondrial content in body wall muscle
mitochondrial morphology in body wall muscle (C. elegans [4]): affect mitochondrial morphology
NAD+ levels in C. elegans (C. elegans [5]): increased NAD+ levels

NC(=O)c1ccc[n+]([C@@H]2O[C@H](COP(=O)([O-])O)[C@@H](O)[C@H]2O)c1 [NMN, nicotinamide mononucleotide, reference compound]
NAD+ levels in liver (C57Bl/6J mice): increased NAD^+ levels in liver
muscle NAD+ content (C57Bl/6J mice): only NR and NA significantly enhanced muscle NAD^+ content
GPR109A activation (calcium flux) (GPR109A): did not activate GPR109A

O=C1N=C2SCC=C2c2ccccc21 [TIQ-A]
intracellular NAD+ content upon PARP inhibition (C2C12 myotubes): confirmed the increase in NAD^+ content

— patent US10709724B2, “Methods of treating mitochondrial dysfunction” (Ecole Polytechnique Federale de Lausanne (EPFL), priority 2011, dated 2020)
